The text below walks through data of PubChem BioAssay (NCI).

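Dose response: 5 concentrations. Exposure: 48 h. Format: 96-well plates. Endpoint: linear interpolation; highest concentration if not reached. TGI denotes the concentration required for complete inhibition of growth.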

Holding throughout (assay): growth of human tumour cells (NCI), 48 h
The subject of experiment [1] is MCF7 breast.
The test system of experiment [2] is KM12 colon.
Experiment [3] has as its system SW-620 colon.
The test system of experiment [4] is OVCAR-3 ovarian.
For experiment [5], the system named is SF-295 CNS.
Experiment [6] concerns U251 CNS.
Experiment [7] relates to UACC-257 melanoma.
Experiment [8] has as its system NCI-H460 lung.
The subject of experiment [9] is HS 578T breast.
Experiment [10] deals with MDA-N.

For `Cc1cc2nc3c(C)c4ccccc4c(C)n3c2cc1C`, the TGI was over 10 µM in experiment [1]; over 10 µM in experiment [2]; over 10 µM in experiment [3]; 7.8 µM in [4]; over 10 µM in [5]; over 10 µM in experiment [6]. For the same molecule, the TGI in experiment [7] is over 10 µM; in experiment [8] it was 4.84 µM; in experiment [9] it was over 10 µM; in experiment [10], 7.8 µM.
Turning to `O=C(O)Cn1cnc2c(=O)[nH]c(Nc3ccccc3)nc21`, the TGI in experiment [1], in experiment [2], in experiment [3], in experiment [4], in experiment [5] and in experiment [6] was over 100 µM in each case. Further, the TGI in experiment [7], in experiment [8], in experiment [9] and in experiment [10] was over 100 µM throughout.
Take `Nc1nc(Cl)cc(Oc2ccc(Cl)cc2)n1`: the TGI in [1], in experiment [2], in experiment [3], in experiment [4], in experiment [5] and in experiment [6] was over 100 µM throughout. The TGI in [7], in experiment [8], in [9] and in [10] was over 100 µM each time.
As to `CN1CN(c2ccccc2)C2(CCN(C(=O)OC(C)(C)C)CC2)C1=O`, the TGI in [1], in experiment [2], in [3], in experiment [4], in experiment [5] and in experiment [6] was over 100 µM throughout. Further, the TGI in experiment [7], in [8], in [9] and in experiment [10] was over 100 µM throughout.
For `O=C(O)C(=Cc1ccc(-c2ccc([N+](=O)[O-])cc2)o1)C(=O)O`, the TGI in experiment [1], in experiment [2], in experiment [3], in experiment [4], in experiment [5] and in experiment [6] was over 100 µM in each case. Moreover, the TGI in [7], in [8], in experiment [9] and in experiment [10] was over 100 µM in each case.
For the molecule `Cc1ccnc2[nH]c(-c3ccc(Cl)cc3)cc(=O)c12`, the TGI was over 100 µM in experiment [1]; over 100 µM in experiment [2]; over 100 µM in experiment [3]; 99.1 µM in experiment [4]; over 100 µM in experiment [5]; over 100 µM in experiment [6]. In addition, the TGI in experiment [7] is over 100 µM; in [8], over 100 µM; in experiment [9] it was over 100 µM; in experiment [10], 4.59 µM.
Turning to `COc1cc2c(cc1OC)C/C(=N\O)c1cc(OC)c(OC)cc1/C=C\2`, the TGI in [1] was over 96.4 µM; in [2], 95.8 µM; in experiment [3] it was over 90.6 µM; in experiment [4], 17.3 µM; in experiment [5], over 61 µM; in experiment [6], over 41.1 µM. Also, the TGI is over 48.8 µM in experiment [7], over 29.4 µM in experiment [8], 15.1 µM in experiment [9] and over 100 µM in [10].
In the case of `Cc1[nH]c(-c2ccccc2)c(O)c1C(=O)OC1CC(C)CCC1C(C)C` (stereo not given), the TGI is 14.9 µM in experiment [1]; 27.9 µM in experiment [2]; 29.2 µM in experiment [3]; 25.2 µM in experiment [4]; 24.8 µM in [5]; 28.9 µM in [6]. Also, the TGI in [7] stood at 29.5 µM; in experiment [8], 28.6 µM; in [9] it was 39 µM; in [10], 29.9 µM.
Regarding `C=C1C(O)C2OC(=O)C(=C)C2C(OC(=O)/C(C)=C/C)CC2(C)OC2C2OC12` (stereo not given), the TGI in [1] is 22.6 µM; in experiment [2] it was 11.6 µM; in experiment [3], over 100 µM; in [4] it was 26.2 µM; in [5], 50.9 µM; in experiment [6], over 100 µM. The TGI is over 100 µM in [7], 91.6 µM in [8], over 100 µM in experiment [9] and 6.02 µM in experiment [10].
`CCN1CCC(O)(/C=C/c2ccc(Cl)c(Cl)c2)C(C(=O)/C=C/c2ccc(Cl)c(Cl)c2)C1` (stereo not given): the TGI in [1] is 2.67 µM; in experiment [2], 1.88 µM; in [3] it was 1.4 µM; in [4], 1.91 µM; in experiment [5] it was 1.74 µM; in [6], 3.79 µM. For the same molecule, the TGI in experiment [7] worked out at 2.71 µM; in experiment [8] it was 2.02 µM; in experiment [9], 2.42 µM; in [10], 2.89 µM.
Consider `CC(C)C(C=O)C(O)(C(F)(F)F)C(F)(F)F` (stereo not given), for which the TGI in experiment [1], in experiment [2], in experiment [3], in experiment [4], in [5] and in experiment [6] was over 100 µM in each case. Also, the TGI in experiment [7], in experiment [8], in [9] and in experiment [10] was over 100 µM in each case.
For `COc1cc(/C=[N+](\[O-])c2ccccc2Cl)ccc1OC(=S)S`, the TGI is over 100 µM in experiment [1]; 41.8 µM in experiment [2]; over 100 µM in experiment [3]; over 100 µM in experiment [4]; over 100 µM in experiment [5]; over 100 µM in experiment [6]. Further, the TGI in experiment [7], in [8], in experiment [9] and in experiment [10] was over 100 µM each time.
Take `COC(=O)C1=C(C(=O)OC)SC2(S1)C(C(=O)OC)=C(C(=O)OC)Sc1c2ssc1=O`: the TGI in experiment [1] is 4.65 µM; in experiment [2], 15.4 µM; in [3], 2.47 µM; in experiment [4], 2.38 µM; in [5] it was 27.6 µM; in experiment [6], 4.68 µM. Moreover, the TGI in [7] was 3.59 µM; in experiment [8] it was 8.76 µM; in experiment [9], 13.4 µM; in experiment [10], 3.57 µM.
In the case of `COc1ccc(C2=Nn3c(nc4sc5c(c4c3=O)CCCC5)SC2)cc1`, the TGI in experiment [1], in [2], in experiment [3], in experiment [4], in experiment [5] and in experiment [6] was over 100 µM in each case. Further, the TGI in [7], in experiment [8], in experiment [9] and in experiment [10] was over 100 µM each time.
As to `Cc1ccc(S(=O)(=O)N(CC(O)COc2ccccc2)c2ccccc2Cl)cc1` (stereo not given), the TGI in experiment [1] is 58.5 µM; in [2], 30.5 µM; in experiment [3], 36.6 µM; in [4], 42.1 µM; in experiment [5], 43.5 µM; in experiment [6], 29.2 µM. Besides, the TGI is 29.3 µM in experiment [7], 36.2 µM in experiment [8], 26.4 µM in [9] and 33.2 µM in experiment [10].
Take `O=C1/C(=C/Cc2ccco2)N=C(c2ccccc2)N1c1nc2ccc(Sc3ccccc3)cc2[nH]1`: the TGI in [1] is 49.2 µM; in [2] it was 45.5 µM; in experiment [3], over 100 µM; in experiment [4] it was 84.8 µM; in experiment [5] it was over 100 µM; in experiment [6], 43.9 µM. Besides, the TGI in experiment [7] is 57.5 µM; in experiment [8] it was over 100 µM; in experiment [9], 50.7 µM; in experiment [10] it was 25 µM.
As for `CCOC(=O)C(NS(=O)(=O)c1ccccc1)(C(F)(F)F)P(=O)(OCC(C)C)OCC(C)C` (stereo not given), the TGI in experiment [1], in experiment [2], in [3], in [4], in [5] and in experiment [6] was over 100 µM throughout. Moreover, the TGI in experiment [7], in experiment [8], in [9] and in [10] was over 100 µM in each case.
As to `c1ccc(C(OCCN2CC3CCC(C2)N3)c2ccccc2)cc1`, the TGI in experiment [1], in [2], in experiment [3], in [4], in [5] and in experiment [6] was over 100 µM throughout. Further, the TGI in experiment [7] was 49 µM; in experiment [8], over 100 µM; in [9], over 100 µM; in experiment [10], 79.6 µM.
For `Cc1cccc(N=Nc2ccc(O)c(CN(C)C)c2)c1`, the TGI in experiment [1] is over 100 µM; in experiment [2] it was 34.4 µM; in experiment [3], 66.8 µM; in experiment [4], 52.7 µM; in experiment [5], 86.5 µM; in [6], over 100 µM. Further, the TGI stood at 36 µM in [7], 34.8 µM in experiment [8], 44.9 µM in experiment [9] and 75.2 µM in experiment [10].
